Here are results for 7 molecules from patent US20070154882A1, “Beta-polypeptides that inhibit cytomegalovirus infection” (priority 2005, published 2007).

Series [1] concerns NHDF cells.
In series [2] the test system is human red blood cells.
Series [3] has as its system HCMV membrane fusion (nuclear localization of pp65) in NHDF cells. Kind of series: pp65 translocation (virion content delivery) assay. The series is classed as cell-based. The following applies: HCMV diluted with 100 µM beta-peptide; 4° C. 90 min, then 37° C. 35 min. Here is the method:
NHDF cells were grown on glass cover-slips in 12-well plates as above. The HCMV was diluted with 100 µM beta-peptide in SF-DMEM and cooled to 4° C. The treatment was then added to cooled cells, which were incubated at 4° C. for 90 min, assuring viral attachment but not entry. The cells were then transferred to 37° C. for 35 min. The cells were then fixed in 3% paraformaldehyde and immunostained for pp65 as described (Lopper, M.; Compton, T. (2004) in J. Virol. Vol. 78, pp. 8333-8341). Images were taken on the Nikon Eclipse TE2000-S with appropriate filters, using consistent exposure times.
The infectivity assays used in these Examples measures immediate early gene expression; immediate early (IE) proteins are the first viral proteins expressed in infected cells. Inhibition of viral gene expression could reflect interference at a variety of points in the virus life cycle such as inhibition of IE gene transcription or translation. A virion content delivery assay was performed to test whether the beta-peptides act at the viral entry stage, as they have been designed to do. Immediately upon membrane fusion, the phosphoprotein-rich tegument layer of the virus is released into the cytoplasm of the target cell. The pp65 protein, highly abundant in the virion tegument, diffuses rapidly to the nucleus after membrane fusion. […]

Turning to `CC(=O)NC[C@H](Cc1ccc(O)cc1)C(=O)NC1CCCC1C(=O)NC1CNCC1C(=O)NC1CNCC1C(=O)N[C@H](CC(=O)NC1CNCC1C(=O)NC1CNCC1C(=O)NC1CCCC1C(=O)NC[C@H](CC(C)C)C(=O)NC1CNCC1C(=O)NC1CCCC1C(=O)N[C@H](CC(=O)N[C@H](CC(N)=O)Cc1ccccc1)C(C)C)CC(C)C` (some centres unmarked) [ERP-II-005], in series [1], the toxicity toward fibroblasts entry is “highly toxic”. The “disruption of cell membranes” value in series [2] is recorded as “does not simply disrupt cell membranes”.

On to heparin, for which the “nuclear localization of pp65” value in series [3] is listed as “eliminates pp65 accumulation in the nucleus”.

For `CC(=O)NC1CCCC1C(=O)N[C@H](CC(=O)NC1CCCC1C(=O)NC[C@H](CC(C)C)C(=O)NC1CNCC1C(=O)NC1CNCC1C(=O)N[C@H](CC(=O)NC1CCCC1C(=O)NC[C@H](Cc1ccc(O)cc1)C(=O)NC1CNCC1C(=O)NC1CNCC1C(=O)N[C@H](CC(=O)NC1CNCC1C(N)=O)C(C)C)Cc1cccc2ccccc12)CC(C)C` (some centres unmarked) [EPE-II-233], the “Cytotoxicity, as indicated by P1 uptake” value in series [1] is listed as “Toxic”.

Turning to `CC(=O)NC1CCCC1C(=O)N[C@H](CC(=O)NC1CCCC1C(=O)NC[C@H](CC(C)C)C(=O)NC1CNCC1C(=O)NC1CNCC1C(=O)N[C@H](CC(=O)NC1CCCC1C(=O)NC[C@H](Cc1ccc(O)cc1)C(=O)NC1CNCC1C(=O)NC1CNCC1C(=O)N[C@H](CC(=O)NC1CNCC1C(N)=O)Cc1ccc2ccccc2c1)Cc1ccccc1)CC(C)C` (some centres unmarked) [EPE-II-225], in series [1], the “Cytotoxicity, as indicated by P1 uptake” value was “Toxic”.

Consider `CC(=O)NC1CCCC1C(=O)N[C@H](CC(=O)NC1CCCC1C(=O)NC[C@H](CC(C)C)C(=O)NC1CNCC1C(=O)NC1CNCC1C(=O)N[C@H](CC(=O)NC1CCCC1C(=O)NC[C@H](Cc1ccc(O)cc1)C(=O)NC1CNCC1C(=O)NC1CNCC1C(=O)N[C@H](CC(=O)NC1CNCC1C(N)=O)C(C)C)Cc1ccc2ccccc2c1)CC(C)C` (some centres unmarked) [EPE-II-231], for which the “Cytotoxicity, as indicated by P1 uptake” value in series [1] is recorded as “Toxic”.

For `CC(=O)NC1CCCC1C(=O)N[C@H](CC(=O)NC1CCCC1C(=O)NC[C@H](CC(C)C)C(=O)NC1CNCC1C(=O)NC1CNCC1C(=O)N[C@H](CC(=O)NC1CCCC1C(=O)NC[C@H](Cc1ccc(O)cc1)C(=O)NC1CNCC1C(=O)NC1CNCC1C(=O)N[C@H](CC(=O)NC1CNCC1C(N)=O)Cc1cccc2ccccc12)Cc1ccccc1)CC(C)C` (some centres unmarked) [EPE-II-227], the “Cytotoxicity, as indicated by P1 uptake” value in series [1] was “Toxic”.

As to `CNC(=O)C[C@H](C)NC(=O)COC(=O)[C@H]1CCCN1C(=O)CC(Cc1ccccc1)NC(C)=O` (some centres unmarked), the melting point was in the range of 128 to 129 °C.
